Measured values published in patent US20140005230A1 (priority 2011, published 2014).

What was measured:
[1] = LogP by HPLC on reversed phase columns (EEC directive 79/831 Annex V.A8); format: physicochemical; settings: pH 2.7, 0.1% formic acid in water / acetonitrile gradient
Method: Measurement of Iog P values was performed according EEC directive 79/831 Annex V.A8 by HPLC (High Performance Liquid Chromatography) on reversed phase columns with the following method:
Measurement of LC-MS was done at pH 2.7 with 0.1% formic acid in water and with acetonitrile (contains 0.1% formic acid) as eluent with a linear gradient from 10% acetonitrle to 95% acetonitrile.
Calibration was done with not branched alkan2-ones (with 3 to 16 carbon atoms) with known log P-values (measurement of log P values using retention times with linear interpolation between successive alkanones). lambda-maX-values were determined using UV-spectra from 200 nm to 400 nm and the peak values of the chromatographic signals.

Phytophthora infestans = format: in vivo; settings: tomatoes, preventive spray, 10 ppm of active ingredient, evaluated 3 days after inoculation
Plasmopara viticola = assay: Plasmopara test (grapevines) / preventive; format: in vivo; settings: preventive spray, 100 ppm of active ingredient, evaluated 6 days after inoculation
Method: Plasmopara Test (Grapevines)/Preventive
To produce a suitable preparation of active compound, 1 part by weight of active compound is mixed with the stated amounts of solvent and emulsifier, and the concentrate is diluted with water to the desired concentration.
To test for preventive activity, young plants are sprayed with the preparation of active compound at the stated rate of application. After the spray coating has dried on, the plants are inoculated with an aqueous spore suspension of Plasmopara viticola and then remain for 1 day in an incubation cabinet at approximately 20° C. and a relative atmospheric humidity of 100%. The plant is subsequently placed for 4 days in a greenhouse at approximately 21° C. and a relative atmospheric humidity of approximately 90%. The plants are then misted and placed for 1 day in an incubation cabinet.
The test is evaluated 6 days after the inoculation. 0% means an efficacy which corresponds to that of the untreated control, while an efficacy of 100% means that no disease is observed.

Pythium ultimum = assay: Pythium test (cotton) / seed treatment; format: in vivo; settings: 50 g/dt seed of active ingredient, greenhouse 7 days, emerged seedlings
Method: Pythium Test (cotton)/Seed Treatment
The test is performed under greenhouse conditions.
Cotton seeds, treated with the active compound or compound combinations, solved in N-methyl-2-pyrrolidon and diluted with water to the desired dosages, were sown in 6*6 cm pots containing 4 cm of a 1:1 mix of steamed field soil and sand.
Perlite was incubated with mycelium fragments of Pythium ultimum. 1 ml of infected perlite was scattered between the treated cotton seeds. Seeds were then covered by light expanded clay aggregate. Pots were incubated in the greenhouse 7 days at 20° C. and 80% relative humidity.
Assessment consisted of counting of emerged seedlings. 0% means an efficacy which corresponds to that of the control, while an efficacy of 100% means that all seedlings have emerged.

Row | SMILES | LogP [1] | Eff. % (Phytophthora infestans) [%] | Eff. % (Plasmopara viticola) [%] | chromatographic logP ([1]; reversed phase HPLC column) | Eff. % (Pythium ultimum) [%]
1 | CC(=CC(=O)Nc1nc(CON=C(c2ccccc2)n2nnnc2C)cs1)C1CC1 [Example 7] | 3.46 |  |  |  | 
2 | Cn1nnnc1C(=NOCc1csc(NC(=O)C=C(c2ccccc2)C2CC2)n1)c1ccccc1 [Example 30] | 2.36 | 85 |  |  | 
3 | Cc1nnnn1C(=NOCc1cccc(NC(=O)C=CC2CCCCC2)n1)c1ccccc1 (mixture of isomers) [Example 32] | 4.46 | 95 |  |  | 
4 | Cn1nnnc1C(=NOCc1csc(NC(=O)C=CC2CC2)n1)c1ccccc1 [Example 24] | 3.04 | 95 | 90 |  | 
5 | Cn1nnnc1C(=NOCc1csc(NC(=O)C=C(C2CC2)C2CC2)n1)c1ccccc1 [Example 23] | 3.76 | 85 |  |  | 
6 | Cc1nnnn1C(=NOCc1csc(NC(=O)C=C(c2ccccc2)C2CC2)n1)c1ccccc1 [Example 17] | 2.38 |  |  |  | 
7 | CC(=CC1CCCC1)C(=O)Nc1nc(CON=C(c2ccccc2)c2nnnn2C)cs1 [Example 26] | 4.09 | 95 | 90 |  | 
8 | Cc1nnnn1C(=NOCc1csc(NC(=O)C=C(C2CC2)C2CC2)n1)c1ccccc1 [Example 15] | 3.83 |  |  |  | 
9 | Cc1nnnn1C(=NOCc1cccc(NC(=O)C=C(c2ccccc2)C2CC2)n1)c1ccccc1 [Example 33] | 4.41 | 95 |  |  | 
10 | Cc1nnnn1C(=NOCc1csc(NC(=O)C=CC2CC2)n1)c1ccccc1 [Example 13] | 3.09 |  |  |  | 
11 | Cn1nnnc1C(=NOCc1csc(NC(=O)C=CC2CCCCC2)n1)c1ccccc1 [Example 29] | 2.5 | 95 |  |  | 
12 | Cn1nnnc1C(=NOCc1cccc(NC(=O)C=CC2CCCCC2)n1)c1ccccc1 [Example 6] | 4.36 | 95 | 93 |  | 
13 | CC(=CC(=O)Nc1nc(CON=C(c2ccccc2)c2nnnn2C)cs1)C1CC1 [Example 18] | 3.41 |  |  |  | 
14 | CC(C)=CC(=O)Nc1nc(CON=C(c2ccccc2)n2nnnc2C)cs1 [Example 12] | 3.15 | 80 |  |  | 
15 | CC(=CC(=O)Nc1cccc(CON=C(c2ccccc2)c2nnnn2C)n1)C1CCCCC1 [Example 5] | 4.82 | 90 | 91 |  | 
16 | CC(=CC(=O)Nc1cccc(CON=C(c2ccccc2)c2nnnn2C)n1)C1CC1 [Example 3] | 3.46 | 95 |  |  | 
17 | Cc1nnnn1C(=NOCc1csc(NC(=O)C=C(c2ccccc2)C2CC2)n1)c1ccccc1 [Example 9] | 4.26 | 85 |  |  | 
18 | Cn1nnnc1C(=NOCc1csc(NC(=O)C=C(c2ccccc2)C2CC2)n1)c1ccccc1 [Example 22] | 4.21 | 80 |  |  | 
19 | CC(=CC(=O)Nc1cccc(CON=C(c2ccccc2)c2nnnn2C)n1)C1CC1 [Example 2] | 3.29 | 100 | 84 |  | 
20 | Cc1nnnn1C(=NOCc1csc(NC(=O)C=CC2CCCCC2)n1)c1ccccc1 [Example 16] | 2.53 | 90 |  |  | 
21 | CC(=CC(=O)Nc1cccc(CON=C(c2ccccc2)c2nnnn2C)n1)C1CC1 [Example 1, 3-cyclopropyl-N-{6-[({[(1-methyl-1H-tetrazol-5-yl)(phenyl)methylene]amino}oxy)methyl]pyridin-2-yl}but-2-enamide] |  | 95 | 97 | 3.48 | 100
22 | CC(=CC1CC1)C(=O)Nc1nc(CON=C(c2ccccc2)n2nnnc2C)cs1 [Example 11] | 3.52 | 95 |  |  | 
23 | CC(=CC(=O)Nc1nc(CON=C(c2ccccc2)c2nnnn2C)cs1)C1CCCCC1 [Example 21] | 4.44 |  |  |  | 
24 | CC(=CC(=O)Nc1nc(CON=C(c2ccccc2)c2nnnn2C)cs1)C1CCCCC1 [Example 20] | 4.66 | 80 |  |  | 
25 | CC(=CC1CCCC1)C(=O)Nc1nc(CON=C(c2ccccc2)n2nnnc2C)cs1 [Example 10] | 4.16 | 80 |  |  | 
26 | CC(=CC1CC1)C(=O)Nc1nc(CON=C(c2ccccc2)c2nnnn2C)cs1 [Example 27] | 3.44 | 95 |  |  | 
27 | CC(C)=CC(=O)Nc1nc(CON=C(c2ccccc2)c2nnnn2C)cs1 [Example 28] | 3.08 | 90 |  |  | 
28 | CC(=CC(=O)Nc1cccc(CON=C(c2ccccc2)n2nnnc2C)n1)C1CC1 (mixture of isomers) [Example 31] | 3.59 | 93 |  |  | 
